Entries after “also recorded” stand apart in the source; their conditions may differ.
Key:
[1] = test system: BRAF V600E-expressing human melanoma A2058 cells; assay: A2058 xenograft in nude mice; format: in vivo
Description: Xenograft tumor growth and in nude mice inoculated with BRAF V600E-positive human melanoma A2058 fed with normal or high-fat diets followed by intraperitoneal injection with DHAA.

[2] = test system: hepatomas; settings: rats fed 4-(methylamino)azobenzene; cited from earlier work
[3] = test system: A375 cells expressing BRAF V600E; assay: melanoma cell treatment: proliferation, MEK1/ERK1/2 phosphorylation, BRAF-MEK1 binding; format: cell-based, human
[4] = test system: SK-MEL-5 cells expressing BRAF V600E; assay: melanoma cell proliferation; format: cell-based
[5] = test system: BRAF V600E-expressing human melanoma A375 cells; assay: A375 xenograft in nude mice; format: in vivo
[6] = molecular target: T1, BRAF V600E (Homo sapiens, UniProt P15056, V600E); assay: BRAF V600E kinase activity (Vmax and Km), MEK1 as substrate; format: biochemical
Experimental: (§1) Whether DHAA inhibits BRAF V600E directly was examined. […] In contrast, DHAA had no effect on BRAF WT-MEK1 binding or MEK1 phosphorylation in a control experiment using purified BRAF WT incubated with MEK1 in the presence of acetoacetate (FIG. 4I left panel). […] This is physiologically consistent with the acetoacetate levels determined as approximately 300 μM in stable HMGCL knockdown A375 and A2058 cells.

[7] = molecular target: T1, BRAF V600E; assay: thermal melt shift assay, purified recombinant protein; format: binding
Experimental: Arrows in the panel indicate melting temperatures at 0 μM (left) and 400 μM (right).
(§2) Whether functional inhibition of acetoacetate would attenuate BRAF V600E tumor growth was examined. Dehydroacetic acid (DHAA) (FIG. 4A) is an inhibitory homologue of acetoacetate.

[8] = molecular target: T1, BRAF V600E; assay: 14C-labeled acetoacetate binding assay (radiometric metabolite-protein interaction)
Experimental: (§3) BRAF wild type and mutant proteins were incubated with increasing concentrations of ^14C-labeled acetoacetate.
(§4) A series of radiometric metabolite-protein interaction analyses were performed using ^14C labeled acetoacetate incubated with purified BRAF variants in the presence and absence of DHAA.

[9] = test system: A2058 cells expressing BRAF V600E; assay: melanoma cell treatment: proliferation, MEK1/ERK1/2 phosphorylation, BRAF-MEK1 binding; format: cell-based, human
[10] = serum and tumor metabolite levels and body weight of xenograft mice; format: in vivo
[11] = test system: Me1-ST cells expressing BRAF V600E; assay: immortalized melanocyte treatment: proliferation, MEK-ERK activation, BRAF-MEK1 binding; format: cell-based
[12] = molecular target: BRAF V600R (Homo sapiens, UniProt P15056, V600R); assay: 14C-labeled acetoacetate binding assay; settings: in the presence of 300 μM 14C-labeled acetoacetate
Experimental: as §3, §4

[13] = molecular target: BRAF V600D (Homo sapiens, UniProt P15056, V600D); assay: 14C-labeled acetoacetate binding assay; settings: in the presence of 300 μM 14C-labeled acetoacetate
Experimental: as §3, §4

[14] = test system: WM-266-4 cells expressing BRAF V600D; assay: melanoma cell proliferation; format: cell-based
[15] = molecular target: T2, FLAG-tagged BRAF V600E (Homo sapiens, UniProt P15056, V600E); assay: cellular thermal shift assay, lysates of transfected 293T cells; format: binding; settings: 400 μM
T2 construct: FLAG; expressed in transfected cells; host or cells: 293T cells (lysates)
Description: as §2

[16] = molecular target: BRAF WT-MEK1 binding (Homo sapiens, UniProt P15056); assay: cell-free in vitro coupled protein-protein binding and kinase assay; format: biochemical; settings: in the presence of acetoacetate
Experimental: as §1

[17] = molecular target: BRAF V600E-MEK1 binding (Homo sapiens, UniProt P15056, V600E); assay: as above; format: biochemical
Experimental: as §1

[18] = test system: Me1-ST parental or control cells expressing BRAF WT or tBRAF; assay: immortalized melanocyte treatment: proliferation, MEK-ERK activation, BRAF-MEK1 binding; format: cell-based
[19] = chronic injection of DHAA to nude mice (tolerability); format: in vivo
[20] = co-treatment with DHAA, high-fat diet
[21] = DHAA at 200 μM, acetoacetate at 300 μM
[22] = tumors harvested from xenograft mice
[23] = BRAF V600E pre-treated with acetoacetate (300 μM)

T1 sequence (P15056 whole entry V600E): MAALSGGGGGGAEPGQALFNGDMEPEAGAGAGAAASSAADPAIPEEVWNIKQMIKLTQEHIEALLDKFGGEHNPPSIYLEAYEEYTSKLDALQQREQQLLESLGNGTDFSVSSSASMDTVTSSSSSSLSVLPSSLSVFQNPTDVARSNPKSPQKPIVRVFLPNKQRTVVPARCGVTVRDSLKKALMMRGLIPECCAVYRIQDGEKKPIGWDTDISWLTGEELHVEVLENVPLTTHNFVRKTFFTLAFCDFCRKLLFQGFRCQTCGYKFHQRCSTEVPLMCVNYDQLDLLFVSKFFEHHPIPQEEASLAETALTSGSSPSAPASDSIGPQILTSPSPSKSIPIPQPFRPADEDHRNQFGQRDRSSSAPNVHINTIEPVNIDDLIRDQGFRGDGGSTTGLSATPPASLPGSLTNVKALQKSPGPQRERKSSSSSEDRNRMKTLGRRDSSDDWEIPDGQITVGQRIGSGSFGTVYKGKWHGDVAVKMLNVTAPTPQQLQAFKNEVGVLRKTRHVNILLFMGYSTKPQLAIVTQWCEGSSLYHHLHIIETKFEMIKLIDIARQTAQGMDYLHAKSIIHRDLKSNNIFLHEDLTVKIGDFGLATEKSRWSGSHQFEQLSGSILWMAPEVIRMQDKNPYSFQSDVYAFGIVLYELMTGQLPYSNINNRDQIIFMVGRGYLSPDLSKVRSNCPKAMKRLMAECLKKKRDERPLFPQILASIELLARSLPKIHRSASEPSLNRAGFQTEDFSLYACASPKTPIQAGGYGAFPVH
Chain of BRAF V600E-MEK1 binding (P15056 whole entry V600E): as above
T2 sequence (P15056 whole entry V600E): as above
Chain of BRAF WT-MEK1 binding (P15056 whole entry): as the sequence (P15056 whole entry V600E) above, with E600V counted along it
Chain of BRAF V600D (P15056 whole entry V600D): as the sequence (P15056 whole entry V600E) above, with E600D counted along it
Chain of BRAF V600R (P15056 whole entry V600R): as the sequence (P15056 whole entry V600E) above, with E600R counted along it

For CC(=O)c1c(O)oc(C)cc1=O [DHAA, 3-Acetyl-2-hydroxy-6-methyl-4H-pyran-4-one], the “high-fat diet-dependent enhancement of BRAF V600E-MEK1 binding in tumors” value ([1]; DHAA, high-fat diet) was “significantly attenuated”, the “high-fat diet-dependent enhancement of cell proliferation rates (Ki67) in tumors” value ([1]; DHAA, high-fat diet) was “significantly attenuated” and the “high-fat diet-dependent enhancement of phosphorylation of MEK1 and ERK1/2 in tumors” value ([1]; DHAA, high-fat diet) was “significantly attenuated”. The “high-fat diet-enhanced tumor growth potential” value [1, 20] was “effectively reversed the enhanced tumor growth potential; also recorded: reverses high-fat diet-enhanced BRAF V600E tumor growth”, the “HMGCL expression in tumors” value ([1]; mouse, in vivo) was “without affecting HMGCL expression” and the “BRAF V600E-MEK1 binding in tumors” value ([1]; single agent) was “reduced binding between BRAF V600E-MEK1”. The “cell proliferation rates in tumors (Ki67 IHC staining)” value ([1]; single agent) was “reduced cell proliferation rates”, the “phosphorylation of MEK1 and ERK1/2 in tumors” value ([1]; single agent) was “selectively inhibited phosphorylation of MEK1 and ERK1/2” and the “xenograft tumor growth (growth rates, sizes, masses)” value ([1]; single agent, normal diet) was “effectively inhibited xenograft tumor growth rates, sizes and masses”. The induction of hepatomas [2] was “inhibitory effect”, the “BRAF V600E-MEK1 association” value [3] was “selectively inhibited” and the cell proliferation [3] was “selectively inhibited cell proliferation; also recorded: selectively inhibits”. The “phosphorylation of MEK1 and ERK1/2” value [3] was “selectively inhibited phosphorylation of MEK1 and ERK1/2”, the cell proliferation [4] was “selectively inhibited cell proliferation” and the “high-fat diet-dependent enhancement of BRAF V600E-MEK1 binding in tumors” value ([5]; DHAA, high-fat diet) was “significantly attenuated”. For the same compound, the “high-fat diet-dependent enhancement of cell proliferation rates (Ki67) in tumors” value ([5]; DHAA, high-fat diet) was “significantly attenuated”, the “high-fat diet-dependent enhancement of phosphorylation of MEK1 and ERK1/2 in tumors” value ([5]; DHAA, high-fat diet) was “significantly attenuated” and the “high-fat diet-enhanced tumor growth potential” value [5, 20] was “effectively reversed the enhanced tumor growth potential”. For the same compound, the “HMGCL expression in tumors” value ([5]; mouse, in vivo) was “without affecting HMGCL expression”, the “BRAF V600E-MEK1 binding in tumors” value ([5]; single agent) was “reduced binding between BRAF V600E-MEK1” and the “cell proliferation rates in tumors (Ki67 IHC staining)” value ([5]; single agent) was “reduced cell proliferation rates”. For the same compound, the “phosphorylation of MEK1 and ERK1/2 in tumors” value ([5]; single agent) was “selectively inhibited phosphorylation of MEK1 and ERK1/2”, the “xenograft tumor growth (growth rates, sizes, masses)” value ([5]; single agent, normal diet) was “effectively inhibited xenograft tumor growth rates, sizes and masses” and the “activating effect of acetoacetate on BRAF V600E (increased Vmax, decreased Km)” value ([6]; in the presence of acetoacetate (300 μM)) was “effectively reversed the activating effect of acetoacetate”. For the same compound, the “BRAF V600E kinase activity (Vmax and Km)” value ([6]; increasing concentrations of DHAA alone) was “did not affect BRAF V600E kinase activity”, the “binding in thermal melt shift assay” value [7] was “directly binds” and the “competition with acetoacetate for BRAF V600E binding” value ([8]; BRAF V600E pre-treated with 14C-labeled acetoacetate, increasing concentrations of DHAA) was “competed with acetoacetate for BRAF V600E binding in a dose-dependent manner”. The “block of acetoacetate binding by pre-treatment” value ([8]; DHAA 200 μM pre-treatment, 14C-labeled acetoacetate up to 400 μM) was “sufficient to block acetoacetate binding”, the “competition with acetoacetate for BRAF V600E binding” value [8, 21] was “sufficient to compete” and the Ki ([8]; in the presence of 300 μM 14C-labeled acetoacetate) was ~88 µM. For the same compound, the “binding ability of BRAF V600E mutant forms to acetoacetate” value ([8]; treatment with DHAA, BRAF V600E and tBRAF V600E) was “significant decrease in binding ability”, the “BRAF V600E-MEK1 association” value [9] was “selectively inhibited” and the cell proliferation [9] was “selectively inhibited cell proliferation; also recorded: selectively inhibits”. The “phosphorylation of MEK1 and ERK1/2” value [9] was “selectively inhibited phosphorylation of MEK1 and ERK1/2”, the body weight ([10]; effect of treatment) was “did not affect body weight” and the serum cholesterol levels ([10]; effect of treatment) was “did not affect; also recorded: had no effect”. The serum glucose levels ([10]; effect of treatment) was “did not affect; also recorded: had no effect”, the “serum levels of 3HB (β-hydroxybutyrate)” value ([10]; effect of treatment) was “did not affect; also recorded: had no effect” and the “serum levels of acetoacetate” value ([10]; effect of treatment) was “had no effect”. The “acetoacetate levels in tumors” value [10, 22] was “did not affect”, the “β-hydroxybutyrate levels in tumors” value [10, 22] was “did not affect” and the “BRAF V600E-MEK1 binding” value [11] was “selectively inhibited”. The MEK-ERK activation [11] was “selectively inhibited”, the cell proliferation [11] was “selectively inhibited” and the Ki [12] was ~91 µM. For the same compound, the Ki [13] was ~88 µM, the cell proliferation [14] was “selectively inhibited cell proliferation” and the “affinity for BRAF V600E relative to acetoacetate” value [15] was “higher affinity than acetoacetate”. For the same compound, the “binding in cellular thermal shift assay” value [15] was “bound only to BRAF V600E”, the “BRAF WT-MEK1 binding” value [16] was “had no effect” and the MEK1 phosphorylation [16] was “had no effect”. The “acetoacetate-enhanced MEK1 binding to BRAF V600E” value [17, 23] was “effectively inhibited”, the “phosphorylation of V600E-bound MEK1” value [17, 23] was “effectively inhibited” and the “BRAF V600E-MEK1 binding and phosphorylation of MEK1 enhanced by acetoacetate” value [17, 21] was “inhibit BRAF V600E-MEK1 binding and phosphorylation of MEK1”. The BRAF-MEK1 binding [18] was “but not parental or control cells”, the “histopathological analyses and weights of diverse organs” value ([19]; 200 mg/kg/day intraperitoneally, ~4 weeks) was “did not cause notable differences” and the “components of the gut microbiota” value ([19]; chronic treatment) was “altered proportions but no loss of any components”. The “effect on the mouse gut microbiome” value ([19]; chronic treatment) was “had no obvious effect”, the “total DNA amount extracted from bacteria in mouse feces” value ([19]; chronic treatment) was “unaltered total DNA amount” and the well-tolerated dose ([19]; intraperitoneally, ~4 weeks) was 200 mg/kg/day. For the same compound, the toxicity in vivo ([19]; mouse, in vivo) was “does not cause obvious toxicity in vivo” and the “complete blood counts (CBC) or hematopoietic properties” value ([19]; representative A375 xenograft mice, compared to the water-treated group) was “did not alter”.

— patent US10792274B2, “Dehydroacetic acid (DHAA) and derivative for uses in treating cancer” (Emory University, priority 2016, dated 2020)
